Each compound was assayed against T1, Mdm2/p53 binding (GST-Mdm2 / His-p53) (Homo sapiens, UniProt Q00987, L33E) (assay: Mdm2/p53 binding assay (HTRF, His-p53 and GST-Mdm2)). Details: His-p53 (aa 1-132) and GST-Mdm2 (aa 25-108, L33E) 6.25 nM each; 25°C, 1 hour; values given as ranges.
T1 construct: Mdm2 partial protein having Mdm2 amino acids at positions 25 to 108
In short: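 Binding was detected by HTRF (ex 320 nm, em 620/665 nm) after 1 h at 25 °C, using Eu-cryptate anti-GST and XL665 anti-His antibodies. The protein pair was GST-Mdm2 (residues 25–108, L33E) with His-p53 (residues 1–132), each 6.25 nM in the protein dilution. T/C used no-compound control and no-p53 background, and IC50 came from sigmoid fitting.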

T1 sequence (Q00987 25-108 L33E): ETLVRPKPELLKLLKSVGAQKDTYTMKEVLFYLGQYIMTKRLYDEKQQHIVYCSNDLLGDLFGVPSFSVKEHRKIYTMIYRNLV

Row | IC50 [nM] | SMILES
1 | 1 to 50 | CN(C)C(=O)[C@@H]1CC[C@@H](NC(=O)[C@@H]2NC3(CCC(C)(C)CC3)[C@@]3(C(=O)Nc4nc(Cl)ccc43)[C@H]2c2ccnc(Cl)c2F)CO1 [Example 104, (3′R, 4′S,5′R)-6″-chloro-4′-(2-chloro-3-fluoropyridin-4-yl)-N-[(3R,6S)-6-(dimethylcarbamoyl)tetrahydro-2H-pyran-3-yl]-4,4-dimethyl-2″-oxo-1″,2″-dihydrodispiro[cyclohexane-1,2′-pyrrolidine-3′,3″-pyrrolo[2,3-b]pyridine]-5′-carboxamide]
2 | 1 to 50 | C[C@H]1O[C@H](CO)CC[C@H]1NC(=O)[C@@H]1NC2(CCC(C)(C)CC2)[C@@]2(C(=O)Nc3cc(Cl)ccc32)[C@H]1c1ccnc(Cl)c1F [Example 105, (3′R, 4′S,5′R)-6″-chloro-4′-(2-chloro-3-fluoropyridin-4-yl)-N-[(2R,3R,6S)-6-(hydroxymethyl)-2-methyltetrahydro-2H-pyran-3-yl]-4,4-dimethyl-2″-oxo-1″,2″-dihydrodispiro[cyclohexane-1,2′-pyrrolidine-3′,3″-indole]-5′-carboxamide]
3 | 1 to 50 | CC1(C)CCC2(CC1)N[C@@H](C(=O)N[C@@H]1CC[C@@H](C(=O)N3CCC3)OC1)[C@H](c1ccnc(Cl)c1F)[C@]21C(=O)Nc2cc(Cl)ccc21 [Example 106, (3′R, 4+S,5′R)—N-[(3R,6S)-6-(azetidin-1-ylcarbonyl)tetrahydro-2H-pyran-3-yl]-6″-chloro-4′-(2-chloro-3-fluoropyridin-4-yl)-4,4-dimethyl-2″-oxo-1″,2″-dihydrodispiro[cyclohexane-1,2′-pyrrolidine-3′,3″-indole]-5H-carboxamide]
4 | 1 to 50 | CCNC(=O)[C@H]1C[C@H](NC(=O)[C@@H]2NC3(CCC(C)(C)CC3)[C@@]3(C(=O)Nc4cc(Cl)ccc43)[C@H]2c2ccnc(Cl)c2F)C1 [Example 118, (3′R,4′S,5′R)-6″-chloro-4′-(2-chloro-3-fluoropyridin-4-yl)-N-[trans-3-(ethylcarbamoyl)cyclobutyl]-4,4-dimethyl-2″-oxo-1″,2″-dihydrodispiro[cyclohexane-1,2′-pyrrolidine-3′,3″-indole]-5′-carboxamide]
5 | 1 to 50 | CC1(C)CCC2(CC1)N[C@@H](C(=O)N[C@H]1C[C@H](CO)C1)[C@H](c1ccnc(Cl)c1F)[C@]21C(=O)Nc2cc(Cl)ccc21 [Example 119, (3′R,4′S,5′R)-6″-chloro-4′-(2-chloro-3-fluoropyridin-4-yl)-N-[trans-3-(hydroxymethyl)cyclobutyl]-4,4-dimethyl-2″-oxo-1″,2″-dihydrodispiro[cyclohexane-1,2′-pyrrolidine-3′,3″-indole]-5′-carboxamide]
6 | 1 to 50 | CC1(C)CCC2(CC1)N[C@@H](C(=O)N[C@H]1C[C@H](C(=O)NC3CCOCC3)C1)[C@H](c1ccnc(Cl)c1F)[C@]21C(=O)Nc2cc(Cl)ccc21 [Example 120, (3′R, 4′S,5′R)-6″-chloro-4′-(2-chloro-3-fluoropyridin-4-yl)-4,4-dimethyl-2″-oxo-N-[trans-3-(tetrahydro-2H-pyran-4-ylcarbamoyl)cyclobutyl]-1″,2″-dihydrodispiro[cyclohexane-1,2′-pyrrolidine-3′,3″-indole]-5′-carboxamide]
7 | 1 to 50 | NC(=O)[C@@H]1CC[C@@H](NC(=O)[C@@H]2NC3(CC(CF)(CF)C3)[C@@]3(C(=O)Nc4cc(Cl)ccc43)[C@H]2c2cccc(Cl)c2F)CO1 [Example 122, (3′R, 4′S,5′R)—N-[(3R, 6S)-6-carbamoyltetrahydro-2H-pyran-3-yl]-6″-chloro-4′-(3-chloro-2-fluorophenyl)-3,3-bis(fluoromethyl)-2″-oxo-1″,2″-dihydrodispiro[cyclobutane-1,2-pyrrolidine-3′,3″-indole]-5′-carboxamide]
8 | 50 to 100 | O=C(N[C@H]1CC[C@H](c2nnco2)CC1)[C@@H]1NC2(CC(CF)(CF)C2)[C@@]2(C(=O)Nc3cc(Cl)ccc32)[C@H]1c1cccc(Cl)c1F [Example 123, (3′R, 4″S,5′R)-6′-chloro-4′-(3-chloro-2-fluorophenyl)-3,3-bis(fluoromethyl)-N-[trans-4-(1,3,4-oxadiazol-2-yl)cyclohexyl]-2″-oxo-1″,2″-dihydrodispiro[cyclobutane-1,2′-pyrrolidine-3′,3″-indole]-5′-carboxamide]
9 | 1 to 50 | CN(C)C(=O)[C@@H]1CC[C@@H](NC(=O)[C@@H]2NC3(CC(CF)(CF)C3)[C@@]3(C(=O)Nc4cc(Cl)ccc43)[C@H]2c2cccc(Cl)c2F)CO1 [Example 124, (3′R, 4′S,5′R)-6″-chloro-4′-(3-chloro-2-fluorophenyl)-N-[(3R,6S)-6-(dimethylcarbamoyl)tetrahydro-2H-pyran-3-yl]-3,3-bis(fluoromethyl)-2″-oxo-1″,2″-dihydrodispiro[cyclobutane-1,2′-pyrrolidine-3′,3″-indole]-5′-carboxamide]

Second part, the compound before the results:

Row | SMILES | IC50 [nM]
10 | O=C(N[C@@H]1CC[C@@H](CO)OC1)[C@@H]1NC2(CC(CF)(CF)C2)[C@@]2(C(=O)Nc3nc(Cl)ccc32)[C@H]1c1cccc(Cl)c1F [Example 84, (3′R, 4′S,5′R)-6″-chloro-4′-(3-chloro-2-fluorophenyl)-3,3-bis(fluoromethyl)-N-[(3R,6S)-6-(hydroxymethyl)tetrahydro-2H-pyran-3-yl]-2″-oxo-1″,2″-dihydrodispiro[cyclobutane-1,2′-pyrrolidine-3′,3″-pyrrolo[2,3-b]pyridine]-5′-carboxamide] | 50 to 100
11 | CC1(C)CCC2(CC1)N[C@@H](C(=O)N[C@H]1CC[C@](O)(CS(C)(=O)=O)CC1)[C@H](c1ccnc(Cl)c1F)[C@]21C(=O)Nc2cc(Cl)ccc21 [Example 87, (3′R, 4′S,5′R)-6″-chloro-4′-(2-chloro-3-fluoropyridin-4-yl)-N-{cis-4-hydroxy-4-[(methylsulfonyl)methyl]cyclohexyl}-4,4-dimethyl-2″-oxo-1″,2′-dihydrodispiro[cyclohexane-1,2′-pyrrolidine-3′,3″-indole]-5′-carboxamide] | 1 to 50
12 | O=C(N[C@@H]1CC[C@@H](CO)OC1)[C@@H]1NC2(CC(CF)(CF)C2)[C@@]2(C(=O)Nc3cc(Cl)ccc32)[C@H]1c1ccnc(Cl)c1F [Example 91, (3′R, 4′S,5′R)-6″-chloro-4′-(2-chloro-3-fluoropyridin-4-yl)-3,3-bis(fluoromethyl)-N-[(3R,6S)-6-(hydroxymethyl)tetrahydro-2H-pyran-3-yl]-2″-oxo-1″,2″-dihydrodispiro[cyclobutane-1,2′-pyrrolidine-3′,3″-indole]-5′-carboxamide] | 50 to 100
13 | CC1(C)CCC2(CC1)N[C@@H](C(=O)N[C@@H]1CC[C@@H](CO)OC1)[C@H](c1cncc(Cl)c1)[C@]21C(=O)Nc2cc(Cl)ccc21 [Example 92, (3′R, 4′R, 5′R)-6″-chloro-4′-(5-chloropyridin-3-yl)-N-[(3R,6S)-6-(hydroxymethyl)tetrahydro-2H-pyran-3-yl]-4,4-dimethyl-2″-oxo-1″,2″-dihydrodispiro[cyclohexane-1,2′-pyrrolidine-3′,3″-indole]-5′-carboxamide] | 1 to 50
14 | O=C(N[C@H]1CC[C@H](c2nnco2)CC1)[C@@H]1NC2(CC(CF)(CF)C2)[C@@]2(C(=O)Nc3cc(Cl)ccc32)[C@H]1c1ccnc(Cl)c1F [Example 95, (3′R, 4′S,5′R)-6″-chloro-4′-(2-chloro-3-fluoropyridin-4-yl)-3,3-bis(fluoromethyl)-N-[trans-4-(1,3,4-oxadiazol-2-yl)cyclohexyl]-2″-oxo-1″,2′-dihydrodispiro[cyclobutane-1,2′-pyrrolidine-3′,3″-indole]-5′-carboxamide] | 50 to 100
15 | CC1(C)CCC2(CC1)N[C@@H](C(=O)N[C@@H]1CC[C@@H](CS(C)(=O)=O)OC1)[C@H](c1ccnc(Cl)c1F)[C@]21C(=O)Nc2cc(Cl)ccc21 [Example 98, (3′R, 4′S,5′R)-6″-chloro-4′-(2-chloro-3-fluoropyridin-4-yl)-4,4-dimethyl-N-{(3R,6S)-6-[(methylsulfonyl)methyl]tetrahydro-2H-pyran-3-yl}-2″-oxo-1″,2″-dihydrodispiro[cyclohexane-1,2′-pyrrolidine-3′,3″-indole]-5′-carboxamide] | 50 to 100
16 | CNC(=O)[C@@H]1CC[C@@H](NC(=O)[C@@H]2NC3(CCC(C)(C)CC3)[C@@]3(C(=O)Nc4nc(Cl)ccc43)[C@H]2c2ccnc(Cl)c2F)CO1 [Example 101, (3′R, 4′S,5′R)-6″-chloro-4′-(2-chloro-3-fluoropyridin-4-yl)-4,4-dimethyl-N-[(3R,6S)-6-(methylcarbamoyl)tetrahydro-2H-pyran-3-yl]-2″-oxo-1″,2″-dihydrodispiro[cyclohexane-1,2′-pyrrolidine-3′,3″-pyrrolo[2,3-b]pyridine]-5′-carboxamide] | 1 to 50
17 | CC1(C)CCC2(CC1)N[C@@H](C(=O)N[C@@H]1CC[C@@H](C(=O)NC3CC3)OC1)[C@H](c1ccnc(Cl)c1F)[C@]21C(=O)Nc2nc(Cl)ccc21 [Example 102, (3′R, 4′S,5′R)-6″-chloro-4′-(2-chloro-3-fluoropyridin-4-yl)-N-[(3R,6S)-6-(cyclopropylcarbamoyl)tetrahydro-2H-pyran-3-yl]-4,4-dimethyl-2″-oxo-1″,2″-dihydrodispiro[cyclohexane-1,2′-pyrrolidine-3′,3″-pyrrolo[2,3-b]pyridine]-5′-carboxamide] | 1 to 50
18 | CC1(C)CCC2(CC1)N[C@@H](C(=O)N[C@@H]1CC[C@@H](C(=O)NCCO)OC1)[C@H](c1ccnc(Cl)c1F)[C@]21C(=O)Nc2cc(Cl)ccc21 [Example 103, (3′R, 4′S,5′R)-6″-chloro-4′-(2-chloro-3-fluoropyridin-4-yl)-N-{(3R,6S)-6-[(2-hydroxyethyl)carbamoyl]tetrahydro-2H-pyran-3-yl}-4,4-dimethyl-2″-oxo-1″,2″-dihydrodispiro[cyclohexane-1,2′-pyrrolidine-3′,3″-indole]-5′-carboxamide] | 1 to 50

Source: US12545685B2 (Daiichi Sankyo Company, Limited, priority 2011, dated 2026)
